From a compilation of properties of binary mixtures (doi:10.1016/j.molliq.2012.02.019)

Assay: xn = mol fraction of the nth substance listed
Conditions: 101 kPa

COC(=O)OC + CCCCCCCC[N+](C)(CCCCCCCC)CCCCCCCC.[Cl-]
x1 = 1
Conditions | electrical conductivity [S/m] | viscosity [mPa·s]
303.15 K | 0.0001 | 0.55
308.15 K | – | 0.49

CCCCCCCC[N+](C)(CCCCCCCC)CCCCCCCC.[Cl-] + COC(=O)OC
Conditions | electrical conductivity, 298.15 K [S/m] | electrical conductivity, 303.15 K [S/m] | electrical conductivity, 308.15 K [S/m] | electrical conductivity, 313.15 K [S/m] | electrical conductivity, 318.15 K [S/m] | viscosity, 298.15 K [mPa·s] | viscosity, 303.15 K [mPa·s] | viscosity, 308.15 K [mPa·s] | viscosity, 313.15 K [mPa·s] | viscosity, 318.15 K [mPa·s]
x1 = 0.002 | 0.0001 | – | 0.0002 | 0.0003 | 0.0004 | – | – | – | – | –
x1 = 0.006 | – | 0.0003 | 0.0004 | – | 0.0006 | – | – | – | – | –
x1 = 0.011 | 0.0006 | 0.0008 | 0.0009 | 0.001 | 0.0012 | – | – | – | – | –
x1 = 0.015 | 0.0009 | – | 0.0013 | 0.0014 | 0.0015 | – | – | – | – | –
x2 = 0 | – | 0.0035 | 0.0049 | 0.0066 | 0.0087 | – | 1602 | 1067 | 770 | 570
x2 = 0.35 | 0.0047 | 0.0064 | 0.0084 | 0.0108 | 0.0138 | 530 | 400 | 304 | 238 | 200
x2 = 0.55 | 0.0098 | – | 0.016 | – | 0.0249 | 158 | – | 98 | – | 65.2
x2 = 0.67 | – | 0.019 | 0.0236 | 0.0287 | 0.0347 | – | 47.1 | 38.66 | 32.21 | 27.29
x2 = 0.76 | 0.0211 | 0.0259 | – | 0.038 | 0.0452 | 22.51 | 18.86 | – | 13.72 | 11.84
x2 = 0.83 | 0.0235 | 0.0287 | 0.0345 | 0.041 | 0.0482 | 10.27 | 8.87 | 7.71 | 6.91 | 6.15
x2 = 0.88 | – | 0.031 | 0.037 | 0.0438 | 0.0513 | – | 4.56 | 4.11 | 3.7 | 3.36
x2 = 0.92 | 0.0171 | 0.0204 | 0.0246 | – | 0.0342 | 2.52 | 2.27 | 2.07 | – | 1.75
x2 = 0.95 | 0.0076 | 0.0094 | – | 0.014 | 0.0167 | 1.41 | 1.3 | – | 1.13 | 1.06
x2 = 0.98 | 0.0012 | 0.0016 | – | – | 0.002 | 0.79 | 0.75 | – | – | 0.64
